One assay addresses T1, PPARγ (Homo sapiens, UniProt P37231).
T1 construct: glutathione S-transferase (GST)-tagged human PPAR-LBD; purchased Fisher Scientific
T1 sequence (P37231 238-503 limits assumed): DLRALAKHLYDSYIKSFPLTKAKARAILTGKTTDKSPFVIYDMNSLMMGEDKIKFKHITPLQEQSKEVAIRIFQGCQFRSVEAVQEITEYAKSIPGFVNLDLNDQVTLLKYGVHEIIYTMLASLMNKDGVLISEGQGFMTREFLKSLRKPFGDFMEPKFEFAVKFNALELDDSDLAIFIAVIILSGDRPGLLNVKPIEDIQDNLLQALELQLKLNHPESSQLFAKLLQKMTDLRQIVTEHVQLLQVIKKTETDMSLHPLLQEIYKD
The experiment in a line: LanthaScreen TR-FRET competitive binding assay, PPARγ LBD. The note with it: Cheng-Prusoff; read-out: Ki inhibition constant, PPARγ LBD. The text has this:
The peroxisome proliferator-activated receptors (PPARs), PPARα, PPARδ, and PPARγ are ligand-dependent transcription factors regulated by FAs, including MCFAs, which control expression of several key metabolism-associated genes. We thus characterized the binding and transcriptional activity of PBI-4547 to these receptors. A LanthaScreen TR-FRET competitive binding assay was used to determine the binding affinity of PBI-4547 in comparison to the full control agonists GW7647 (PPARα), GW0742 (PPARδ), and rosiglitazone (PPARγ).
The LanthaScreen time-resolved fluorescence resonance energy transfer (TR-FRET) PPARα, PPARδ and PPARγ competitive binding assay (Fisher Scientific) was performed according to the manufacturer’s protocol. […] The FRET signal was measured using an Infinite M1000 microplate reader by excitation at 332 nm and emission at 520 nm for fluorescein and 490 nm for terbium. Competitive ligand binding to PPAR is detected by a test compound’s ability to displace the Fluormone pan-PPAR Green from the LBD, which results in a decrease of the 520 nm/490 nm TR-FRET ratio. The inhibition constant (Ki) of the competitor ligand was calculated by applying the Cheng-Prusoff equation.
(In TR-FRET formats the signal depends on donor and acceptor labels being close together.)

A further assay has as its target T2, GPR120 (Homo sapiens, UniProt Q5NUL3).
T2 construct: expressed in transfected cells; host or cells: HEK293
T2 sequence (Q5NUL3 1-361): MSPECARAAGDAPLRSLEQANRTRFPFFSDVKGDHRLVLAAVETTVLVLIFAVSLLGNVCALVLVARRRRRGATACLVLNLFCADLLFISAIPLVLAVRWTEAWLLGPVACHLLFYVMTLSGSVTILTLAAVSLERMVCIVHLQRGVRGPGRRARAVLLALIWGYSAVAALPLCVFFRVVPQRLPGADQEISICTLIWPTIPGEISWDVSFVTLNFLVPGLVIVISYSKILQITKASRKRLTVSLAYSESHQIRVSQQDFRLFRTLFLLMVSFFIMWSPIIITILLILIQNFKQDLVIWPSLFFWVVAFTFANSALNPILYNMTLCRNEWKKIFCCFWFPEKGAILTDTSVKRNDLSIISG
As to the kind of experiment: BRET β-arrestin-2 recruitment to GPR120-GFP10 in HEK293 cells. It is filed as cell-based. The following applies: Rluc8-β-arrestin-2 / GPR120-GFP10. The protocol: Figure 1 PBI-4547 binding and activity on GPR84, GPR40, GPR120, and PPAR receptors. (A) Chemical structure of PBI-4547. (B) Gi pathway activation was monitored in HEK293 cells transfected with GPR84 and the Gαi2 activation biosensor. Cells were co-treated with […] sodium decanoate and increasing concentrations of PBI-4547, and BRET variation compared with vehicle was measured. (C) β-arrestin 2 recruitment to activated GPR120 receptor was monitored in HEK293 cells transfected with RLuc8-β-arrestin 2 and GPR120-GFP10. (D) Cells transfected with GPR40 and Gαq or Gαi2 activation biosensor were exposed to increasing concentrations of PBI-4547 or to 500 µM of sodium decanoate, and BRET variation compared with vehicle was measured. Cells were exposed to increasing concentrations of PBI-4547 or to 100 µM of GW9508, and BRET variation compared with vehicle was measured. […] Data in (B–D) are expressed as means ± SEM of 4–5 experiments; data in (E,F) are from a representative experiment from a total of 3 to 4 independent experiments. […]
BRET measurements in transiently transfected HEK293 cells were performed as previously described. Ligands were incubated with cells at room temperature for 10 min (G protein biosensors) or 25 min (β-arrestin/GPR120) before collecting BRET[2] readings between Rluc8 and GFP10.
On the technique in general: In BRET a luciferase serves as donor, and the signal depends on an acceptor being close.

Each structure is given as a SMILES string.

By Ki is commonly meant a dissociation constant, usually derived from enzyme kinetics or from competition with a known ligand. Usually EC50 stands for the midpoint of the concentration-response curve. Read a low EC50 as higher potency in that assay.

On to `CCCCCc1cc(CCCCC)cc(CC(=O)[O-])c1.[Na+]` [PBI-4547, 2-[3,5-dipentylphenyl]acetate sodium salt], for which the Ki at PPARγ was 0.088 µM. For the same compound, on GPR120, the EC50 amounted to 48 µM.

Values taken from article PMC7391726, “Fatty acid mimetic PBI-4547 restores metabolic homeostasis via GPR84 in mice with non-alcoholic fatty liver disease” (Scientific Reports, 2020).
